Measured values as given in the supplement of paper PMC10307832.

How the values were obtained:
Assay in all cases: relative viability (nuclei count vs DMSO), 5 days (fraction); higher = more cells survive
MLN4924 + Pictilisib = compound: NS(=O)(=O)OC[C@@H]1C[C@@H](n2ccc3c(N[C@H]4CCc5ccccc54)ncnc32)C[C@@H]1O [MLN4924] + CS(=O)(=O)N1CCN(Cc2cc3nc(-c4cccc5[nH]ncc45)nc(N4CCOCC4)c3s2)CC1 [Pictilisib] (partner 1 µM)
Method in brief: (§1)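 Lung cancer cell lines in 1536-well plates were dosed by pin tool the day after seeding, either with one drug alone or with a fixed anchor-drug dose plus five library-drug doses (not always all listed) in √10 steps. After 5 days, cells were fixed and their nuclei stained in one step (final 0.05% Triton X-100, 1% formaldehyde, 1 ug/ml Hoechst), then counted on 4× images. Relative viability is the nuclei count in treated wells divided by that in vehicle wells. Values are medians of duplicate plates.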

GSK126 + OSI-027 = compound: CC[C@H](C)N1C=C(C2=C(C=C(C=C21)C3=CN=C(C=C3)N4CCNCC4)C(=O)NCC5=C(C=C(NC5=O)C)C)C [GSK126] + COc1cccc2cc(-c3nc([C@H]4CC[C@H](C(=O)O)CC4)n4ncnc(N)c34)[nH]c12 [OSI-027] (partner 0.5 µM)
Method in brief: as §1

GSK126 + Olaparib = compound: CC[C@H](C)N1C=C(C2=C(C=C(C=C21)C3=CN=C(C=C3)N4CCNCC4)C(=O)NCC5=C(C=C(NC5=O)C)C)C [GSK126] + O=C(c1cc(Cc2n[nH]c(=O)c3ccccc23)ccc1F)N1CCN(C(=O)C2CC2)CC1 [Olaparib] (partner 8 µM)
Method in brief: as §1

MLN4924 + Olaparib = compound: NS(=O)(=O)OC[C@@H]1C[C@@H](n2ccc3c(N[C@H]4CCc5ccccc54)ncnc32)C[C@@H]1O [MLN4924] + O=C(c1cc(Cc2n[nH]c(=O)c3ccccc23)ccc1F)N1CCN(C(=O)C2CC2)CC1 [Olaparib] (partner 8 µM)
Method in brief: as §1

Cell Line	relative viability (MLN4924 + Pictilisib; first compound 0.04 µM)	relative viability (MLN4924 + Pictilisib; first compound 0.1265 µM)	relative viability (MLN4924 + Pictilisib; first compound 0.4 µM)	relative viability (MLN4924 + Pictilisib; first compound 1.265 µM)	relative viability (MLN4924 + Pictilisib; first compound 4 µM)	relative viability (GSK126 + OSI-027; first compound 0.08 µM)	relative viability (GSK126 + OSI-027; first compound 0.253 µM)	relative viability (GSK126 + OSI-027; first compound 0.8 µM)	relative viability (GSK126 + OSI-027; first compound 2.53 µM)	relative viability (GSK126 + OSI-027; first compound 8 µM)	relative viability (GSK126 + Olaparib; first compound 0.08 µM)	relative viability (GSK126 + Olaparib; first compound 0.253 µM)	relative viability (GSK126 + Olaparib; first compound 0.8 µM)	relative viability (GSK126 + Olaparib; first compound 2.53 µM)	relative viability (GSK126 + Olaparib; first compound 8 µM)	relative viability (MLN4924 + Olaparib; first compound 0.04 µM)	relative viability (MLN4924 + Olaparib; first compound 0.1265 µM)	relative viability (MLN4924 + Olaparib; first compound 0.4 µM)	relative viability (MLN4924 + Olaparib; first compound 1.265 µM)	relative viability (MLN4924 + Olaparib; first compound 4 µM)
NCI-H322M	0.556	0.855	0.669	0.291	0.333	0.544	0.571	0.56	0.565	0.62	0.818	0.807	0.806	0.829	0.78	0.708	0.511	0.498	0.372	0.427
LCLC-97TM1	0.159	0.224	0.132	0.129	0.104	0.503	0.421	0.546	0.606	0.635	0.494	0.596	0.413	0.507	0.445	0.282	0.138	0.0947	0.0518	0.0597
NCI-H596	0.419	0.448	0.273	0.379	0.349	0.895	0.701	0.798	0.754	0.714	0.713	0.703	0.702	0.847	0.758	0.815	0.626	0.436	0.595	0.557
NCI-H1792	0.375	0.387	0.34	0.147	0.122	0.643	0.796	0.679	0.786	0.675	0.471	0.351	0.507	0.374	0.551	0.452	0.37	0.384	0.33	0.104
NCI-H1944	0.405	0.38	0.376	0.182	0.178	0.456	0.423	0.423	0.369	0.449	0.431	0.376	0.402	0.408	0.387	0.405	0.296	0.304	0.162	0.139
NCI-H1755	0.221	0.358	0.287	0.134	0.139	0.747	0.725	0.75	0.8	0.689	0.9	0.922	0.877	0.826	0.822	0.859	0.544	0.491	0.254	0.171
H3255	0.453	0.382	0.317	0.203	0.217	0.573	0.568	0.578	0.666	0.583	0.571	0.553	0.517	0.582	0.57	0.481	0.372	0.297	0.253	0.268
NCI-H23	0.249	0.288	0.183	0.0988	0.141	0.697	0.6	0.668	0.682	0.559	0.299	0.361	0.312	0.3	0.263	0.343	0.245	0.239	0.143	0.131
